Results as given in US12097202B2 (Kadmon Corporation, LLC, priority 2022, dated 2024).
Structures can show the parent of a compound that is named as a salt.

Experiment: Solubility of belumosudil mesylate
Type: physicochemical

For `CC(C)NC(=O)COc1cccc(-c2nc(Nc3ccc4[nH]ncc4c3)c3ccccc3n2)c1` [Belumosudil mesylate, 2-{3-[4-(1H-indazol-5-ylamino)-2-quinazolinyl]phenoxy}-N-(propan-2-yl) acetamide methanesulfonate (1:1)], the “solubility in DMSO” value (DMSO) was “soluble”, the “solubility in methanol and DMF” value (methanol and DMF) was “slightly soluble” and the solubility in water (water) was “practically insoluble”.
